Measured values published in PMC2763579 (Journal of medicinal chemistry, 2009).
“Also recorded” adds a separate entry of the source.

Experiments:
[1] = tested on: HSP27 phosphorylation at Ser78 in HeLa cells; assay: Drug-induced HSP27 Ser78 phosphorylation, Western blot; format: cell-based, human; settings: absence of heat shock, 50 μg/ml 1 h
[2] = tested on: heat induced HSP70 expression in Jurkat cells; assay: Inhibition of heat-induced HSP70 expression, Western blot; format: cell-based, human; settings: pre-heat treatment 50 μg/ml

Which “Enhancement of HSP27 phosphorylation (in words)” value (“Enhancement” for short) [1] does the source give for COC(=O)COc1cc(-c2oc3cc(O)cc(O)c3c(=O)c2O)ccc1O [Compound D1] here?
Its value is “did not activate HSP27 phosphorylation”.

For COc1cc(-c2oc3cc(O)cc(O)c3c(=O)c2O)ccc1O [Compound D2], which “Enhancement” value [1] is on record?
Its value is “did not activate HSP27 phosphorylation”.

For COc1cc(O)c2c(=O)c(O)c(-c3ccc(O)c(O)c3)oc2c1 [Compound D7], which “Enhancement” value [1] is on record?
The value was “showed enhancement of HSP27 phosphorylation”.

How did the “Inhibition of HSP70 induction (in words)” value [2] turn out when O=C(O)COc1cc(O)c2c(=O)c(O)c(-c3ccc(O)c(O)c3)oc2c1 [Compound D9] was run?
Its value is “does not inhibit HSP70; also recorded: showed no ability to inhibit HSP70 induction”.

COC(=O)COc1cc(O)c2c(=O)c(O)c(-c3ccc(O)c(O)c3)oc2c1 [Compound D10] was tested. Which “Enhancement” value [1] did it give?
The value was “showed enhancement of HSP27 phosphorylation”.

With O=c1c(O)c(-c2ccc(O)c(O)c2)oc2cc(O)cc(O)c12 [Quercetin, reference compound] as the compound, how does the “Enhancement” value [1] read?
Its value is “enhances HSP27 phosphorylation at Ser78”.
